Measured values published in patent US20140357688A1, “METHOD FOR INHIBITING EZH2 EXPRESSION IN BREAST CANCER CELLS” (Yung Shin Pharm. Ind. Co., Ltd., priority 2013, published 2014).

Assays:
[1] = system: ERK; assay: Western blot of ERK phosphorylation in MDA-MB-468 cells; type: cell-based, human; settings: 3 μM YC-1 for 6 h in the presence of inhibitor
Description: (A) Cells were pretreated with KT5720 (3 μM), KT5823 (3 μM), NS2028 (30 μM), or ODQ (30 μM) and then stimulated with YC-1 (3 μM) for 6 h. Cells were collected for measurement of protein expression (left) or cell viability (middle). After 3 days of PKA knockdown, cells were induced with 3 μM YC-1 for 4 h. Cells were harvested and analyzed using western blotting (right). The levels of protein expression were quantitated and shown under blots. […] Cells were collected and analyzed protein expression (left) and cells viability (middle). p44/42 MAPK knockdown cells were treated with 3 μM YC-1 for 4 h and then detected protein expression (left). (C) Cells were treated with 3 μM YC-1 for indicated time. Cells were harvested for detection of protein phosphorylated activation. […] Six hours later, cells were harvested for EZH2 ubiquitination assay. (E) Cells were induced by 3 μM YC-1 for 6 h in the presence of PD98059 or KT5720. Cells were collected for the determination of ERK phosphorylation. Cells were lysed in PBS containing proteinase inhibitor and phosphatase inhibitors and sonication. Protein concentration was measured using the Bio-Rad protein assay kit (Bio-Rad Laboratories, Hercules, Calif., USA). […] The band intensities were analyzed and quantified by the Multi Gauge software (Fuji Photo Film).

[2] = system: EZH2; assay: EZH2 ubiquitination assay; type: cell-based, human; settings: inhibitor pretreatment, then 3 μM YC-1
Description: (A) Cells were pretreated with cyclohexamide (30 μM) for 1 h and followed by induction with vehicle (DMSO) or YC-1 (3 μM) for indicated time. Cells were harvested for detection of protein expression. (B)(C) Cells were incubated with 3 μM YC-1 for 6 h in the presence of vehicle, 3 μM MG-132 or 30 μM NH4Cl. Cells were harvested for detection of protein expression (B) or cell viability assay (C). The levels of protein expression were quantitated and shown under blots. (D) After treatment of 3 μM YC-1 for indicated time, cells were harvested and lysed for immunoprecipitation and western blot analysis described in Materials and Methods.
Cells were lysed with MLB buffer (25 mM HEPES, pH 7.5, 150 mM NaCl, 1% Igepal CA-630, 10 mM MgCl2, 1 mM EDTA, 2% glycerol, 1 mM Na3VO4, 1 mM NaF, 1 mM PMSF, 10 μg/ml of leupeptin, aprotinin, and pepstatin A). After sonication, cell lysates were centrifugated at 12,000×g for 10 min at 4° C. Supernatants were incubated with anti-EZH2 antibody (BD Biosciences) and protein A Sepharose beads (GE Health Care) overnight at 4° C. After washing with MLB buffer, precipitated proteins were boiled in 1× Laemmli sample buffer and then separated with SDS-PAGE. The ubiquitination levels of EZH2 were recognized by using anti-Ubiquitn monoclonal antibody.

[3] = system: EZH2; assay: Western blot of EZH2 protein expression in MDA-MB-468 cells; type: cell-based, human; settings: inhibitor pretreatment, then 3 μM YC-1 for 6 h
Description: Cells were harvested and performed with western blotting analysis. […] The levels of protein expression were quantitated and shown under blots. (C) Cells were transfected with EZH2 shRNA for 0, 1, 2, 3, and 4 days and collected for determination of cell viability (left) and protein expression (right). (D)(E) After 4 days of EZH2 knockdown, cells were incubated with 3 μM YC-1 for 4 h and detected cell viability (D) and protein contents (E). (F) Tumor specimens were isolated and protein was extracted for western blot analysis.
Cells were lysed in PBS containing proteinase inhibitor and phosphatase inhibitors and sonication. Protein concentration was measured using the Bio-Rad protein assay kit (Bio-Rad Laboratories, Hercules, Calif., USA). Lysate protein was separated by electrophoresis of SDS-PAGE and transferred to Immobilon P membrane (EMD Millipore). The membranes were incubated with appropriate primary antibodies and horseradish peroxidase-conjugated secondary antibodies (EMD Millipore). The signaling was visualized using Chemiluminescence substrate kit (EMD Millipore) and collected by the Luminesence image analyzer, LAS4000 (Fuji Photo Film Co., Tokyo, Japan). The band intensities were analyzed and quantified by the Multi Gauge software (Fuji Photo Film).

[4] = system: MDA-MB-468; assay: MTT cell viability assay; type: cell-based, human; settings: inhibitor pretreatment, then 3 μM YC-1 for 6 h
Description: (A) Cells were treated with indicated concentration of YC-1 for 6, 24, and 48 h. Cell viability was determined by MTT method. (B) MDA-MB-468 cells were treated with 3 μM YC-1 for 0, 6, and 12 h, and then stained with fluorescence diacetate (FDA) and propidium iodide (PI). Cell morphology was assessed by fluorescence microscopy with magnification ×20 (upper 3 rows) or ×40 (lowest row). (C) MDA-MB-468 cells were treated with 3 μM YC-1 for 24 h, cells were lysed and subjected to western blot analysis described in Materials and Methods. β-actin is a loading control. Blots were representative of results from three independent experiments. (D) Cells were treated with vehicle (DMSO, as control) or 3 μM YC-1 for 6 h. The cell cycles were analyzed by flow cytometry. (E) Cells were treated with indicated concentration of YC-1 and then performed with clonogenic assay.
Human breast cancer cells, MDA-MB-468, MDA-MB-157, MDA-MB-231, MDA-MB-453, and Hs578T, and immortalized mammary epithelial cell lines, 184A1 and MCF-10A, were obtained from American Type Culture Collection (Manassas, Va., USA). MDA-MB-468, MDA-MB-157, MDA-MB-231, and MDA-MB-453 were cultured in DMEM/F12 medium supplemented with 10% FBS, 100 U/ml penicillin, and 100 μg/ml streptomycin. Hs578T was cultured in RPMI 1640 medium containing 10% FBS, 2 mM L-glutamine, 100 U/ml penicillin, and 100 μg/ml streptomycin. 184A1 and MCF-10A were cultured in DMEM/F12 medium supplemented with 5% horse serum, 0.5 μg/ml hydrocortisone, 10 μg/ml insulin, 20 ng/ml epidermal growth factor, 0.1 μg/ml cholera enterotoxin, 2 mM L-glutamine, 100 U/ml penicillin, and 100 μg/ml streptomycin. All cells were maintained in a humidified incubator containing 5% CO2. For hypoxia treatment, cells were incubated in a chamber flushed with 1% 02, 5% CO2, and 94% N2 at 37° C.
Cell viability was measured by 3-(4,5-Dimethyl-2-thiazolyl)2,5-diphenyl-2H-tetrazolium bromide (MTT) assay.

[5] = system: MDA-MB-468 xenograft; assay: MDA-MB-468 breast cancer xenograft animal model; type: in vivo, Nu/Nu mice
Description: MDA-MB-468 cells were used to inoculate Nu/Nu mice. (A, left) Tumor bearing mice were given vehicle (10 μl DMSO, CTL) or YC-1 (30 and 60 mg/kg/day) by ip treatment. (B, right) Tumor bearing mice were given vehicle (normal saline, CTL) or YC-1-succinate (YC-1-S; 20, 40, and 80 mg/kg/day) by oral administration. During treatment period, tumor volume and body weights of mice were measured once per 3 days. Data are expressed as mean of tumor volume (mm^3)±S.E.M. from 6 mice (YC-1 treatment) or 10 mice (YC-1-S treatment). Tumor weights (B) and body weights of mice (C) in control and YC-1/YC-1-S-treated groups were recorded.
Nu/Nu female mice (four weeks old) were from National Laboratory Animal Center, Taipei, Taiwan. Mice were maintained under procedures and guidelines from the Institutional Animal Care and Use of the National Health Research Institutes. MDA-MB-468 breast cancer cells (5×10^6 cells per mouse) were suspended in 0.1 ml of Matrigel solution (50%, v/v, Matrigel in 1×PBS) and inoculated into the mammary fat pads of nude mice. When the tumor masses reached to 100 mm^3, the tumor bearing mice were randomly divided into different groups for different dosage of YC-1 treatments. The mice were given by intraperitoneal injection with YC-1 or oral administration of YC-1-succinate. Tumor size and body weights of mice were measured once per 3 days and tumor volume (mm^3) was calculated as the equation: length×[…]. At the end of experiments, mice were sacrificed and tumor nodules were dissected and weighted. Tumor tissues were subjected to western blot analysis.

[6] = In vivo pharmacokinetic analysis

conversion of prodrug into active form [6] | Compound | effect of inhibitor on ERK phosphorylation [1] | effect of inhibitor on YC-1-induced EZH2 ubiquitination [2] | effect of inhibitor on YC-1-induced EZH2 inhibition [3] | effect of inhibitor on YC-1-induced inhibition of cell viability [4] | tumor growth ([5]; 20, 40, and 80 mg/kg orally) | body weights of mice ([5]; 20, 40, and 80 mg/kg/day oral) | tumor weight ([5]; 20, 40, and 80 mg/kg/day oral)
– | CCCCCCOC(=O)[C@]1(O)C[C@@H]2O[C@@]1(C)n1c3ccccc3c3c4c(c5c6ccccc6n2c5c31)C(=O)NC4 [KT5720] | did not affect ERK phosphorylation | could be blocked | significantly reversed | significantly reversed | – | – | –
quickly converted into its active form | O=C(O)CCC(=O)OCc1ccc(-c2nn(Cc3ccccc3)c3ccccc23)o1 [YC-1-succinate, succinic acid mono-[5-(1-benzyl-1H-indazol-3-yl)-furan-2-ylmethyl]ester] | – | – | – | – | dose-dependent inhibition | not affected | dose-dependently reduced tumor weight
